Reference: US5486516A, “Furopyrimidine derivatives” (DowElanco, priority 1993, dated 1996)

Tests used:
[1] = system: Pyricularia oryzae (rice blast); experiment: whole plant or invertebrate; type: in vivo; details: foliar, read-out: RICE BLAST control rating
[2] = system: Southern corn rootworm (Diabrotica undecimpuctata howardi Barber); experiment: Mite/insect screen, corn rootworm; type: in vivo; details: soil; for mortality at 12 ppm / mortality at 24 ppm: Diabrotica, read-out: CRW results (percent mortality)
Procedure, shortened: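 Compound in acetone/alcohol with emulsifiers, diluted with water; 1 mL applied to 15 g dry sandy soil holding a presoaked corn seed. After 6–12 h drying, five 2-3 instar larvae added, held at 23° C; percent mortality and phytotoxicity scored after standard exposure periods.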

[3] = system: southern armyworm (Spodopetra eridania Cramer); experiment: Mite/insect screen, Southern armyworm; type: in vivo; details: sprayed leaves; for mortality at 200 ppm / mortality at 400 ppm: Spodoptera eridania, read-out: SAW results (percent mortality)
Procedure, shortened: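 Compounds in acetone/alcohol with Toximul emulsifiers, diluted in water, sprayed to runoff on squash leaves at 10 psi and dried 1 h. Excised treated leaves fed to southern armyworm larvae in Petri dishes; percent mortality scored after standard exposure.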

[4] = system: Twospotted spider mites (Tetranychus urticae Koch); experiment: Mite/insect screen, twospotted spider mites; type: in vivo; details: sprayed leaves; for mortality at 200 ppm / mortality at 400 ppm: Tetranychus urticae, read-out: SM results (percent mortality)
Procedure, shortened: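 Squash cotyledons infested with mites were sprayed to runoff at 10 psi with compound in acetone/alcohol plus emulsifiers, diluted in water to the stated concentrations. Percent mortality and phytotoxicity were scored after standard exposure periods.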

[5] = system: melon aphids (Aphis gossvpii Glover); experiment: Mite/insect screen, melon aphids; type: in vivo; details: sprayed leaves; for mortality at 200 ppm / mortality at 400 ppm: Aphis, read-out: MA results (percent mortality)
Procedure, shortened: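 Aphids established on squash cotyledons were sprayed to runoff with compound in acetone/alcohol with sulfonate/nonionic emulsifiers, diluted in water to test concentrations. Leaves dried 1 h. Percent mortality scored after standard exposure periods.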

[6] = system: Puccinia recondita tritici (leaf rust); experiment: Plant pathology screen (Test 1), leaf rust on wheat; details: in Triticum aestivum, foliar, read-out: LEAF RUST control rating
Experimental: This screen was used to evaluate the efficacy of the present compounds against a variety of different organisms that cause plant diseases.
The test compounds were formulated for application by dissolving 50 mg of the compound into 1.25 ml of solvent. The solvent was prepared by mixing 50 ml of "Tween 20" (polyoxyethylene (20) sorbitan monolaurate emulsifier) with 475 ml of acetone and 475 ml of ethanol. The solvent/compound solution was diluted to 125 ml with deionized water. The resulting formulation contains 400 ppm test chemical. Lower concentrations were obtained by serial dilution with the solvent-surfactant mixture.
The formulated test compounds were applied by foliar spray.
The formulated technical compounds were sprayed on all foliar surfaces of the host plants (or cut berry) to past run-off. Single pots of each host plant were placed on raised, revolving pedestals in a fume hood. Test solutions were sprayed on all foliar surfaces. All treatments were allowed to dry and the plants were inoculated with the appropriate pathogens within 2-4 hours.
The effectiveness of test compounds in controlling disease was rated using the following scale.

[7] = system: Pseudoperonospora cubensis (downy mildew); experiment: Plant pathology screen (Test 1), downy mildew on squash; details: foliar, read-out: DOWN MDEW control rating
[8] = system: Erysiphe graminis tritici (powdery mildew); experiment: Plant pathology screen (Test 1), powdery mildew on wheat; details: Blumeria graminis, in Triticum aestivum, foliar, read-out: POWD MDEW control rating
[9] = system: Botrytis cinerea (gray mold); experiment: Plant pathology screen (Test 1), gray mold on grape berries; details: read-out: GRAY MOLD control rating

Structure (SMILES) | pest or weed control at 400 µg/mL [1] [%] | mortality at 12 ppm ([2]; CRW rate 12.00 ppm) [%] | mortality at 24 ppm ([2]; CRW rate 24.00 ppm) [%] | mortality at 200 ppm ([3]; rate 200 ppm) [%] | mortality at 400 ppm ([3]; rate 400 ppm) [%] | mortality at 200 ppm ([4]; rate 200 ppm) [%] | mortality at 400 ppm ([4]; rate 400 ppm) [%] | mortality at 200 ppm ([5]; rate 200 ppm) [%] | mortality at 400 ppm ([5]; rate 400 ppm) [%] | pest or weed control at 400 µg/mL [6] [%] | pest or weed control at 400 µg/mL [7] [%] | pest or weed control at 400 µg/mL [8] [%] | pest or weed control at 400 µg/mL [9] [%] | also measured
Cc1oc2ncnc(OCCc3ccc4ccccc4c3)c2c1C [Example 55, 5,6-dimethyl-4-[2-(2-naphthyl)ethoxy]furo[2,3-d]pyrimidine] | 0 to 19 | 0 | 0 | 0 | 0 | 0 | 0 | 0 | 0 | 20 to 89 | 0 to 19 | 0 to 19 | 0 to 19 | –
Cc1oc2ncnc(Sc3ccc(F)cc3)c2c1C [Example 56, 5,6-dimethyl-4-[(4-fluorophenyl)thio]furo[2,3-d]pyrimidine] | 20 to 89 | 0 | 0 | 0 | 0 | 0 | 0 | 0 | 0 | 20 to 89 | 0 to 19 | 20 to 89 | 0 to 19 | –
Cc1oc2ncnc(OCCN3C[C@@H](C)O[C@@H](C)C3)c2c1C [Example 57, Cis-5,6-dimethyl-4-[2-(2,6-dimethyl-4-morpholinyl)ethoxy]furo[2,3-d]pyrimidine] | 0 to 19 | 0 | 0 | 0 | 0 | 0 | 0 | 0 | 0 | 0 to 19 | 20 to 89 | 0 to 19 | 0 to 19 | CRW results (percent mortality) ([2]; CRW rate 12.00 ppm): 0%; CRW results (percent mortality) ([2]; CRW rate 24.00 ppm): 0%; SAW results (percent mortality) ([3]; rate 200 ppm): 0%; SAW results (percent mortality) ([3]; rate 400 ppm): 0%; SM results (percent mortality) ([4]; rate 200 ppm): 0%; SM results (percent mortality) ([4]; rate 400 ppm): 0%; MA results (percent mortality) ([5]; rate 200 ppm): 0%; MA results (percent mortality) ([5]; rate 400 ppm): 0%
Cc1oc2ncnc(Oc3ccc(F)cc3Cl)c2c1C [Example 59, 4-(2-chloro-4-fluorophenoxy)-5,6-dimethylfuro[2,3-d]pyrimidine] | 0 to 19 | 0 | 0 | 0 | 0 | 0 | 0 | 0 | 0 | 20 to 89 | 0 to 19 | 90 to 100 | 0 to 19 | –
Cc1oc2ncnc(OCC3CCC(C)O3)c2c1C (stereo not drawn) [Example 60, 5,6-dimethyl-4-[(2-methyloxolan-5-yl)methoxy]furo[2,3-d]pyrimidine] | 0 to 19 | 0 | 0 | 0 | 0 | 0 | 80 | 50 | 60 | 0 to 19 | 90 to 100 | 0 to 19 | 0 to 19 | –
Cc1oc2ncnc(OCCc3cccs3)c2c1C [Example 61, 5,6-dimethyl-4-[2-(2-thienyl)ethoxy]furo[2,3-d]pyrimidine] | 20 to 89 | 0 | 0 | 0 | 0 | 90 | 0 | 90 | 0 | 20 to 89 | 90 to 100 | 90 to 100 | 0 to 19 | –
Cc1ccc(Oc2ncnc3oc(C)c(C)c23)cc1 [Example 62, 5,6-dimethyl-4-(4-methylphenoxy)furo[2,3-d]pyrimidine] | 0 to 19 | 0 | 0 | 0 | 0 | 0 | 0 | 0 | 0 | 0 to 19 | 0 to 19 | 90 to 100 | 0 to 19 | –
